Experiment [1] has as its target T1, human recombinant kinase full-length wildtype AKT1 (Homo sapiens, UniProt P31749).
T1 construct: Purified human recombinant kinase full-length wildtype AKT1 was expressed in insect cells; made in house; host or cells: insect cells
Kind of experiment: AKT1 kinase assay (wildtype, TR-FRET, Lance). Particulars: 0.6 nM wildtype AKT1, 50 nM Ulight-CREBtide, either 50 μM ATP or 2 mM ATP, 60 min at RT. Type of experiment: biochemical. On the procedure: AKT1 kinase assay: Inhibitory effects of compounds on wildtype AKT1 were undertaken in a 10-pt dose response kinase activity assay measuring phospho-peptide product formation based on TR-FRET signal as described in the following paragraph.
(§1) Purified human recombinant kinase full-length wildtype AKT1 was expressed in insect cells and activated in vitro by PDPK1. Ulight™-CREBtide (PerkinElmer, catalog number TRF0107) was used as the peptide substrate. The reaction buffer consisted of 50 mM HEPES pH 7.5, 10 mM MgCl2, 0.01% Triton X-100, 0.01% BSA, 2 mM DTT, 0.6 nM AKT1,50 nM Ulight™-CREBtide and either 50 μM ATP or 2 mM ATP. The compound solution was prepared as 10 mM DMSO stock. For the assay, a 1:3 serial dilution 10-pt dose response of test compounds, in duplicate, for each concentration were dispensed into a 384-well plate (Corning, catalog number 4513). Final DMSO concentration in the assay was 1%. The enzyme mixture (5 μL, 1.2 nM) were added and the mixture was incubated for 15 min at RT prior to the start of the kinase reaction by the addition of 5 μL substrate mixture (100 nM Ulight™-CREBtide). The reaction was stopped after 60 min of incubation at RT by the addition of 10 μL of Detection Mix (PerkinElmer, #CR97-100) consisting of Europium-anti-phospho-CREB (Ser133) (Perkin Elmer, catalog number TRF0200). Incubation with the detection mix for a further 60 min allowed binding of antibody to the phospho-Ulight™ CREBtide. The fluorescence emissions at 620 nm and 665 nm after excitation at 350 nm was measured using Envision reader. The ratio of the emissions at 665 nm and at 620 nm provided the measure for the amount of phosphorylated CREBtide product of AKT1 kinase activity. To determine the IC50 values, the data was normalized (enzyme reaction without inhibitor=0% inhibition, all other assay components but no enzyme=100% inhibition) and IC50 values were calculated by a 4-parameter fit using an in-house developed protocol.
The symbol +++ represents an IC50 value <20 μM; the symbol ++ represents an IC50 value from ≥20 μM to 80 μM.

Experiment [2] deals with T2, human recombinant kinase full-length AKT1 E17K (Homo sapiens, UniProt P31749, E17K).
T2 construct: Purified human recombinant kinase full-length AKT1 E17K was expressed in insect cells; made in house; host or cells: insect cells
T2 sequence (P31749 whole entry E17K): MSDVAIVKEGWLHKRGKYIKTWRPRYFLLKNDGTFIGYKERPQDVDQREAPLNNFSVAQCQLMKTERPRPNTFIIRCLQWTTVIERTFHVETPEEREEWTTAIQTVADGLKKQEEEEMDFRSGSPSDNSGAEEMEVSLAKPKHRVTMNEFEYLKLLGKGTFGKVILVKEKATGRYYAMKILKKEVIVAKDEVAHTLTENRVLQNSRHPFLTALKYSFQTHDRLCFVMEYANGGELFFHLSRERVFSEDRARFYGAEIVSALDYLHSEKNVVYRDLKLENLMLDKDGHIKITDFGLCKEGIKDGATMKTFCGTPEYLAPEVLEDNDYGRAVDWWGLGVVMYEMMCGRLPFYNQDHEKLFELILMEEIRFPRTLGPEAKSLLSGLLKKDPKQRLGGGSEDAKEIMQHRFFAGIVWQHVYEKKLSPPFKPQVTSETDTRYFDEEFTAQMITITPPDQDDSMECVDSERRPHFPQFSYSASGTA
Kind of experiment: AKT1 E17K kinase assay (TR-FRET, Lance). Type of experiment: biochemical. Particulars: 0.6 nM AKT1 E17K, 50 nM Ulight-CREBtide, either 50 μM ATP or 2 mM ATP, 60 min at RT. The method, then: AKT1 E17K kinase assay: Inhibitory effects of compounds on AKT1 E17K were undertaken in a 10-pt dose response kinase activity assay measuring phospho-peptide product formation based on TR-FRET signal as described in the following paragraph.
as §1, with “full-length” for “full-length wildtype”, “AKT1 E17K” for “AKT1”, “AKT1 E17K, 50” for “AKT1,50”, “1.3” for “1:3”
Table 9 assigns each compound a code for potency in the AKT1 E 17K kinase assay: A, B, or C. According to the code, A represents an IC50 value <500 nM; B represents an IC50 value from ≥500 nM to <2000 nM; and C represents an IC50 value ≥2000 nM.
(In general: TR-FRET usually uses a lanthanide donor and a delayed reading to cut background.)

Molecules are shown by their SMILES. pIC50: −log10 of the molar value. Some results are limits rather than exact numbers.

T1 sequence (P31749 whole entry): as the sequence (P31749 whole entry E17K) above, with K17E counted along it

In the case of `Nc1ncccc1-c1nc2ccc(C3CCCCC3)nc2n1-c1ccc(NC(=O)[C@H]2CC[C@H](C(=O)O)CC2)nc1` [Compound I-119, (1r,4r)-4-((5-(2-(2-aminopyridin-3-yl)-5-cyclohexyl-3H-imidazo[4,5-b]pyridin-3-yl)pyridin-2-yl)carbamoyl)cyclohexane-1-carboxylic acid], the values for the pIC50 in experiment [1] and in experiment [2] were greater than 4.70 and 5.70 to 6.30, respectively.
For `CCN(Cc1ccc(-n2c(-c3cccnc3N)nc3ccc(-c4ccccc4)nc32)c(F)c1)[C@H]1CC[C@H](C(=O)O)CC1` [Compound I-163] the same measures were greater than 4.70 and no more than 5.70.
With `Nc1ncccc1-c1nc2ccc(-c3ccccc3)cc2n1-c1ccc(NC(=O)C2CCC(C(=O)O)C2)nc1` (stereo not shown) [Compound I-110, 3-((5-(2-(2-aminopyridin-3-yl)-6-phenyl-1H-benzo[d]imidazol-1-yl)pyridin-2-yl)carbamoyl)cyclopentane-1-carboxylic acid], the pIC50 in experiment [1] is greater than 4.70; in experiment [2], no more than 5.70.
For the molecule `Nc1ncccc1-c1nc2ccc(-c3ccccc3)nc2n1-c1ccc(CN2CC3(CC(C(=O)O)C3)C2)nc1` [Compound I-136, 2-((5-(2-(2-aminopyridin-3-yl)-5-phenyl-3H-imidazo[4,5-b]pyridin-3-yl)pyridin-2-yl)methyl)-2-azaspiro[3.3]heptane-6-carboxylic acid], the pIC50 in experiment [1] was greater than 4.70; in experiment [2] it was 5.70 to 6.30.
Turning to `Cc1nc(NC(=O)[C@H]2CC[C@H](C(=O)O)CC2)ccc1-n1c(-c2cccnc2N)nc2ccc(-c3ccccc3F)nc21` [Compound I-218], the pIC50 in experiment [1] was greater than 4.70; in experiment [2], 5.70 to 6.30.
For the molecule `Cc1nc(NC[C@@H]2CC[C@H](C(=O)O)C2)ccc1-n1c(-c2cccnc2N)nc2ccc(-c3ccccc3)nc21` [Compound I-226], the pIC50 in experiment [1] is greater than 4.70; in experiment [2], 5.70 to 6.30.
For `Nc1ncccc1-c1nc2ccc(-c3ccccc3)nc2n1-c1ccc(C(=O)N2CC3(CC(C(=O)O)C3)C2)cc1` [Compound I-80, 2-(4-(2-(2-aminopyridin-3-yl)-5-phenyl-3H-imidazo[4,5-b]pyridin-3-yl)benzoyl)-2-azaspiro[3.3]heptane-6-carboxylic acid] the same measures were greater than 4.70 and no more than 5.70.
`Nc1ncccc1-c1nc2ccc(-c3ccccc3)nc2n1-c1ccc(C2CCN(CC3CCC(C(=O)O)CC3)CC2)cc1` (stereo not shown) [Compound I-76, 4-((4-(4-(2-(2-aminopyridin-3-yl)-5-phenyl-3H-imidazo[4,5-b]pyridin-3-yl)phenyl)piperidin-1-yl)methyl)cyclohexane-1-carboxylic acid]: the pIC50 in experiment [1] was greater than 4.70; in experiment [2], 5.70 to 6.30.
With `Nc1ncccc1-c1nc2ccc(-c3ccccc3)nc2n1-c1ccc(C2CN(C(=O)C3CC(=O)CC(=O)C3)C2)cc1` [Compound I-37, 5-(3-(4-(2-(2-aminopyridin-3-yl)-5-phenyl-3H-imidazo[4,5-b]pyridin-3-yl)phenyl)azetidine-1-carbonyl)cyclohexane-1,3-dione], the pIC50 in experiment [1] is greater than 4.70; in experiment [2] it was greater than 6.30.
Consider `CC1(C)C[C@H](CN2CC(c3ccc(-n4c(-c5cccnc5N)nc5ccc(-c6ccccc6)nc54)cc3)C2)CC[C@H]1C(=O)O` [Compound I-71, (1R,4R)-4-((3-(4-(2-(2-aminopyridin-3-yl)-5-phenyl-3H-imidazo[4,5-b]pyridin-3-yl)phenyl)azetidin-1-yl)methyl)-2,2-dimethylcyclohexane-1-carboxylic acid], for which the pIC50 in experiment [1] was greater than 4.70; in experiment [2], greater than 6.30.
For `Nc1ncccc1-c1nc2ccc(-c3ccccc3)nc2n1-c1ccc(NC(=O)C2CC3(CC(C(=O)O)C3)C2)nc1` (stereo not shown) [Compound I-112, 6-((5-(2-(2-aminopyridin-3-yl)-5-phenyl-3H-imidazo[4,5-b]pyridin-3-yl)pyridin-2-yl)carbamoyl)spiro[3.3]heptane-2-carboxylic acid] the same measures were greater than 4.70 and greater than 6.30.

What is called pIC50 is the IC50 on a negative log10 scale, so that one unit is a factor of ten.

These data come from patent publication US20260200920A1, “SUBSTITUTED AMINOPYRIDINE COMPOUNDS FOR USE AS AKT1 INHIBITORS” (Atavistik Bio, Inc., priority 2023, published 2026).
